Laboratory results as given in patent US20260294890A1, “LONG-TERM PREVENTION AND/OR TREATMENT OF A DISEASE BY SLO-1 INHIBITORS” (Elanco Animal Health GmbH, priority 2023, published 2026).
Each block holds one compound with its values, some of them ahead of it.

Experiments:
[1] = Assay 1: half-life and plasma clearance upon intravenous administration to beagle dogs; type: in vivo; settings: iv dose up to 0.3 mg/kg, Phoenix PK/PD (Example 1: internal tool); for clearance / half-life: dog, geometric mean; for half-life: read-out: Half-life (h/Form) iv, geometric mean (converted)
Experimental: Assay 1: Determination of Half-Life and Plasma Clearance of Compounds of the Invention Upon Administration to Beagle Dogs
Compounds according to the invention were administered as an intravenous (iv) dose (up to 0.3 mg/kg) to beagle dogs (minimum n=3). Blood samples were collected from these beagle dogs up to 168 h after intravenous administration and up to 3024 h after subcutaneous administration. A portion of each whole blood sample was processed to plasma. Compound concentrations were determined in plasma using LCMS/MS. Phoenix™ Pharmacokinetic and Pharmacodynamic (PK/PD) was used to determine half-life and plasma clearance values. Only for Example 1, an internal tool available to the inventors was used to determine the half-life and plasma clearance values.

Ancylostoma caninum [2] = assay: Assay 3: treatment of an existing hookworm infection in dogs (cohort A); type: in vivo; settings: 30 mg/kg subcutaneous 15 days after infection
Experimental: (§1) 12 dogs were allocated to one of six groups in three cohorts. Each cohort comprised a negative control group (n=2) (‘Control group’) and a group (n=2) treated with the compound of Example 9 (‘Treatment group’).
(§2) Dogs in negative control groups were administered an equivalent volume of vehicle solution.
(§3) All dogs were infected with 100-300 hookworm (Ancylostoma caninum) 3rd-stage larvae (L3s) via oral gavage (W.A.A.V.P. Guidelines, First edition; Jacobs, D. E., A. Arakawa, C. H. Courtney, et al., 1994. Vet. Parasitol. 52: 179-202). The cohorts were treated as follows: • Cohort A: The compound of Example 9 or the vehicle solution was administered 15 days after infection with Ancylostoma caninum • Cohort B: The compound of Example 9 or the vehicle solution was administered 30 days prior to infection with Ancylostoma caninum • Cohort C: The compound of Example 9 or the vehicle solution was administered 60 days prior to infection with Ancylostoma caninum
(§4) Fecal egg counts (FECs, eggs per gram of feces) were obtained from each dog 15, 20, 25 and 30 days after hookworm infection.
(§5) Following the final FEC, dogs were dewormed with a commercial anthelmintic and feces were collected for 48 hours. Fecal output from each dog was soaked in water for a minimum of 30 minutes and processing through 250 μm, 150 μm and 38 μm sieves to recover expelled adult and immature hookworms. Expelled hookworms were preserved in fixative (5% formalin) and counted.
Cohort A was designed to evaluate effectiveness against patent adult hookworm infections present at the time of treatment with the compound of Example 9.

Ancylostoma caninum [3] = assay: Assay 3: residual efficacy against hookworm infection in dogs (cohorts B and C); type: in vivo; settings: for % Reduction of Mean Fecal Egg Count / % Reduction of Mean Number of Recovered Hookworms: vs control; for Mean Number of Recovered Hookworms: after final FEC
Experimental: as §1, §2, §3, §4, §5

Dirofilaria immitis [4] = assay: Assay 2: residual protection test, second Dirofilaria immitis infection of dogs 90 days after treatment
Dirofilaria immitis [5] = assay: Assay 2: prevention test, Dirofilaria immitis heartworm infection in dogs (modified Knott and heartworm antigen tests)
[6] = cohort B, 30 mg/kg subcutaneous 30 days prior to infection, 15 days after infection
[7] = cohort B, 30 mg/kg subcutaneous 30 days prior to infection, 20 days after infection
[8] = cohort B, 30 mg/kg subcutaneous 30 days prior to infection, 25 days after infection
[9] = cohort B, 30 mg/kg subcutaneous 30 days prior to infection, 30 days after infection
[10] = cohort B, 30 mg/kg subcutaneous 30 days prior to infection
[11] = cohort C, 30 mg/kg subcutaneous 60 days prior to infection, 15 days after infection
[12] = cohort C, 30 mg/kg subcutaneous 60 days prior to infection, 20 days after infection
[13] = cohort C, 30 mg/kg subcutaneous 60 days prior to infection, 25 days after infection
[14] = cohort C, 30 mg/kg subcutaneous 60 days prior to infection, 30 days after infection
[15] = cohort C, 30 mg/kg subcutaneous 60 days prior to infection

clearance ([1]; plasma): 10 mL/min/kg
half-life ([1]; plasma): 52 h
Compound: CCc1c(C(=O)N[C@H]2CCOc3ccccc32)cnc2c(-c3cc(F)cc(F)c3F)c(F)ccc12 [Example 1, N-[(4S)-3,4-Dihydro-2H-chromen-4-yl]-4-ethyl-7-fluoro-8-(2,3,5-trifluorophenyl)quinoline-3-carboxamide]

clearance ([1]; plasma): 2.33 mL/min/kg
half-life ([1]; plasma): 19 h
Compound: Cc1nn2c(C(C)C)c(C(=O)N[C@H]3CCc4ccccc43)cnc2c1-c1cc(Cl)c(F)c(Cl)c1 [Example 2, (S)-3-(3,5-dichloro-4-fluorophenyl)-N-(2,3-dihydro-1H-inden-1-yl)-7-isopropyl-2-methylpyrazolo[1,5-a]pyrimidine-6-carboxamide]

clearance ([1]; plasma): 3 mL/min/kg
half-life ([1]; plasma): 37.4 h
Compound: Cc1nn2c(C(C)C)c(C(=O)N[C@H]3CCOc4ccccc43)cnc2c1-c1ccc(F)c(F)c1 [Example 3, (S)—N-(chroman-4-yl)-3-(3,4-difluorophenyl)-7-isopropyl-2-methylpyrazolo[1,5-a]pyrimidine-6-carboxamide]

clearance ([1]; plasma): 1.17 mL/min/kg
half-life ([1]; plasma): 160 h
Compound: O=C(N[C@H]1CCOc2ccccc21)c1cnc2c(-c3cc(Cl)cc(Cl)c3)c(F)ccc2c1N1CC(F)C1 [Example 5, (S)—N-(chroman-4-yl)-8-(3,5-dichlorophenyl)-7-fluoro-4-(3-fluoroazetidin-1-yl)quinoline-3-carboxamide]

clearance ([1]; plasma): 11.5 mL/min/kg
half-life ([1]; plasma): 43.6 h
Compound: O=C(N[C@H]1CCOc2ccccc21)c1cnc2c(-c3cc(F)cc(F)c3F)c(F)ccc2c1C1CS(=O)(=O)C1 [Example 8, N-[(4S)-3,4-dihydro-2H-chromen-4-yl]-4-(1,1-dioxidothietan-3-yl)-7-fluoro-8-(2,3,5-trifluorophenyl)quinoline-3-carboxamide]

Compound: O=C(N[C@H]1CCOc2ccccc21)c1cnc2c(-c3cc(F)cc(F)c3F)c(F)ccc2c1[C@H]1C[C@H](F)C1 [Example 9, N—((S)-chroman-4-yl)-7-fluoro-4-((1R,3S)-3-fluorocyclobutyl)-8-(2,3,5-trifluorophenyl)quinoline-3-carboxamide]
clearance ([1]; plasma): 1.17 mL/min/kg
half-life ([1]; plasma): 190 h
Fecal egg count reduction upon treatment (Ancylostoma caninum [2]): > 90%
Mean Fecal Egg Count (Ancylostoma caninum [2]; 15 days after infection): 0 EPG
% Reduction of Mean Fecal Egg Count (Ancylostoma caninum [2]; 15 days after infection, vs control): 100%
Mean Fecal Egg Count (Ancylostoma caninum [2]; 20 days after infection): 0 EPG
% Reduction of Mean Fecal Egg Count (Ancylostoma caninum [2]; 20 days after infection, vs control): 100%
Mean Fecal Egg Count (Ancylostoma caninum [2]; 25 days after infection): 25 EPG
% Reduction of Mean Fecal Egg Count (Ancylostoma caninum [2]; 25 days after infection, vs control): 93.75%
Mean Fecal Egg Count (Ancylostoma caninum [2]; 30 days after infection): 0 EPG
% Reduction of Mean Fecal Egg Count (Ancylostoma caninum [2]; 30 days after infection, vs control): 100%
Mean Number of Recovered Hookworms (Ancylostoma caninum [2]; after final FEC): 0.0
% Reduction of Mean Number of Recovered Hookworms (Ancylostoma caninum [2]; vs control): 100%
Mean Fecal Egg Count (Ancylostoma caninum [3]; [6]): 0 EPG
% Reduction of Mean Fecal Egg Count (Ancylostoma caninum [3]; [6]): 100%
Mean Fecal Egg Count (Ancylostoma caninum [3]; [7]): 0 EPG
% Reduction of Mean Fecal Egg Count (Ancylostoma caninum [3]; [7]): 100%
Mean Fecal Egg Count (Ancylostoma caninum [3]; [8]): 0 EPG
% Reduction of Mean Fecal Egg Count (Ancylostoma caninum [3]; [8]): 100%
Mean Fecal Egg Count (Ancylostoma caninum [3]; [9]): 0 EPG
% Reduction of Mean Fecal Egg Count (Ancylostoma caninum [3]; [9]): 100%
Mean Number of Recovered Hookworms (Ancylostoma caninum [3]; [10]): 0
% Reduction of Mean Number of Recovered Hookworms (Ancylostoma caninum [3]; [10]): 100%
Mean Fecal Egg Count (Ancylostoma caninum [3]; [11]): 0 EPG
% Reduction of Mean Fecal Egg Count (Ancylostoma caninum [3]; [11]): 100%
Mean Fecal Egg Count (Ancylostoma caninum [3]; [12]): 0 EPG
% Reduction of Mean Fecal Egg Count (Ancylostoma caninum [3]; [12]): 100%
Mean Fecal Egg Count (Ancylostoma caninum [3]; [13]): 0 EPG
% Reduction of Mean Fecal Egg Count (Ancylostoma caninum [3]; [13]): 100%
Mean Fecal Egg Count (Ancylostoma caninum [3]; [14]): 0 EPG
% Reduction of Mean Fecal Egg Count (Ancylostoma caninum [3]; [14]): 100%
Mean Number of Recovered Hookworms (Ancylostoma caninum [3]; [15]): 0
% Reduction of Mean Number of Recovered Hookworms (Ancylostoma caninum [3]; [15]): 100%
duration of 100% protection from infections with hookworm larvae (Ancylostoma caninum [3]; cohorts B and C, 30 mg/kg subcutaneous): at least 60 days
protection from infections with hookworm larvae (Ancylostoma caninum [3]; cohorts B and C, 30 mg/kg subcutaneous, FECs and expelled worm counts, for at least 60 days): 100%
dogs with a positive heartworm antigen test result (Dirofilaria immitis [4]; 30 mg/kg subcutaneous 90 days before second infection, 149 days after second infection): 50%
residual protection from infection with Dirofilaria immitis (Dirofilaria immitis [4]; dogs, 30 mg/kg subcutaneous prior to second infection): significant residual protection
reduction in worm burden in the heart and lungs relative to the negative control group (Dirofilaria immitis [4]; dogs, 30 mg/kg subcutaneous prior to second infection, necropsy approx. 5 months after infection, all dogs): > 80%
dogs with positive test results in the modified Knott and heartworm antigen tests (Dirofilaria immitis [5]; 30 mg/kg subcutaneous 90 days after infection, 150, 180 and 210 days after infection): None of the dogs
effectiveness at preventing the development of patent adult heartworm (Dirofilaria immitis [5]; dogs, 30 mg/kg subcutaneous, administered 90 days after experimental infection): 100%

clearance ([1]; plasma): 6.17 mL/min/kg
half-life ([1]; plasma): 24.7 h
Compound: Cc1nn2c(C(C)C)c(C(=O)N[C@H]3CCOc4ccccc43)cnc2c1-c1c(F)cccc1Cl [Example 10, (S)-3-(2-chloro-6-fluorophenyl)-N-(chroman-4-yl)-7-isopropyl-2-methylpyrazolo[1,5-a]pyrimidine-6-carboxamide]

clearance ([1]; plasma): 5 mL/min/kg
half-life ([1]; plasma): 47.8 h
Compound: O=C(N[C@H]1CCOc2ccccc21)c1cnc2c(-c3cc(F)cc(F)c3F)cccc2c1C1COC1 [Example 11, (S)—N-(chroman-4-yl)-4-(oxetan-3-yl)-8-(2,3,5-trifluorophenyl)quinoline-3-carboxamide]

clearance ([1]; plasma): 17 mL/min/kg
half-life ([1]; plasma): 21.4 h
Compound: O=C(N[C@H]1CCOc2ccccc21)c1cnc2c(-c3cc(F)cc(F)c3F)cccc2c1C1CCOCC1 [Example 12, N-[(4S)-3,4-Dihydro-2H-chromen-4-yl]-4-(tetrahydro-2H-pyran-4-yl)-8-(2,3,5-trifluorophenyl)quinoline-3-carboxamide]

clearance ([1]; plasma): 3 mL/min/kg
half-life ([1]; plasma): 43.4 h
Compound: O=C(N[C@H]1CCOc2ccccc21)c1cnc2c(-c3cc(F)cc(F)c3F)c(F)ccc2c1C1CCOCC1 [Example 14]

Plasma Clearance, geometric mean [1]: 9.33 mL/min/kg
Half-life (h/Form) iv, geometric mean ([1]; plasma): 45.43 h
Compound: (S)—N-(2,3-Dihydro-1H-inden-1-yl)-3-(3-fluorophenyl)-7-isopropyl-2-methylpyrazolo[1,5-a]pyrimidine-6-carboxamide [Example 13]
